Test results as given in a melting point compilation (Tetko et al.; mined from patent text by program, amines drawn as free bases though some values may be those of a salt).

Compound `CP(C)(=O)CNc1cc(Oc2ccc(C(F)(F)F)cn2)ccc1[N+](=O)[O-]` has a melting point of 158 to 160 °C.
For `CNC(=O)Oc1ccc(NC(=O)C(C)Oc2ccccc2)c(C)c1` (stereo not drawn), the melting point was 123 to 125 °C.
Compound `Cc1nn(Cc2cccc(Cl)c2)cc1C(=O)CC(=O)C(=O)O` has a melting point of 183 to 184 °C.
Compound `Cc1cn(Cc2cccc(Cl)c2)cc1C(=O)CC(=O)C(=O)O` has a melting point of 148 to 149 °C.
In the case of `Cc1c(N2CC[C@@H](C3(NCCO)CC3)C2)c(F)cc2c(=O)c(C(=O)O)cn([C@@H]3C[C@@H]3F)c12`, the melting point is reported as 168 to 170 °C.
With `O=C(O)C1CSC(c2ccccc2OCCCO[N+](=O)[O-])N1` (stereo not drawn) the melting point was 131 to 134 °C.
In the case of `CCCCNC(=O)Oc1cccc(NC(=O)CC(=O)CCC)c1`, the melting point is reported as 123 °C.
For `O=C1Nc2ccc(C(F)(F)F)cc2C1c1nc(Cl)nc2nn(C3CCCC3)cc12` (stereo not drawn), the melting point was greater than 300 °C.
With `CCCCS(=O)(=O)c1ncn(C(=O)N(CCC)CCC)n1` the melting point was 38.5 to 39.5 °C.
`CCCCN(CCCC)c1ccc(N=O)cc1` gave a melting point of 122 to 124 °C.
Compound `CCOC(=O)N1CCN(C(=O)Cn2sc3ccccc3c2=O)CC1` has a melting point of 158 to 160 °C.
Work on `Cc1cccc(-c2ccc3c(ccn3Cc3ccc(C(C)(C)C)cc3)c2)c1` yielded a melting point of 94 to 95 °C.
`c1ccc2c(c1)CC1(CCN(CCc3c[nH]c4ccccc34)CC1)O2` gave a melting point of 167 to 169 °C.
For `CC(C)CN1C(=O)[C@@H](CC(=O)O)N[C@H](c2ccccc2Cl)c2cc(Cl)ccc21`, the melting point was 184 to 188 °C.
Work on `COc1cc2nccn2c(OC)n1` yielded a melting point of 120 to 121 °C.
With `COc1cc2c(cc1OC)CN(NC1=NCCN1)C2` the melting point was 191 to 192 °C.
`Cc1cc(Nc2ccc(Cl)cc2)nc(-n2ncc3ccccc32)n1` showed a melting point of 167 to 169 °C.
`Clc1ccc(CCC(Cn2ccnc2)Sc2c(Cl)cc(Cl)cc2Cl)cc1` (stereo not drawn) gave a melting point of 132 °C.
`O=C1C=C(c2ccccc2)NCCN1` gave a melting point of 204 to 206 °C.
`O=[N+]([O-])c1cccc(COc2cccc3cccnc23)c1` showed a melting point of 98 to 99 °C.
Work on `CN(CCc1ccccc1)C(=O)Cn1cc(C(=O)O)c2cc(OCc3ccccc3)ccc21` yielded a melting point of 182 to 185 °C.
`COc1cc(OC)c2c(=O)cc(-c3nc4ccccc4[nH]3)oc2c1` showed a melting point of 245 to 246 °C.
In the case of `COC(=O)c1cccc(Nc2nccc(-c3ccnc(NCCCO)c3)n2)c1`, the melting point is reported as 162 to 163 °C.
For `CCOC(=O)c1ccc2[nH]c3c(c2c1)CC(N(C)C)CC3` (stereo not drawn), the melting point was 188 to 190 °C.
Compound `COc1cc2nc(S(=O)Cc3ncc(C)c(N(C)C)c3Cl)[nH]c2cc1OC` (stereo not drawn) has a melting point of 174 to 175 °C.
`Cn1c(C(F)(F)F)cc(=O)n(-c2ccc3snc(CF)c3c2)c1=O` gave a melting point of 201 to 202 °C.
In the case of `CC(C)(C)[Si](C)(C)O[Si](C)(C)C(C)(C)C`, the melting point is reported as 94 to 95 °C.
Compound `O=[N+]([O-])C1NC=CN1c1cccnc1` (stereo not drawn) has a melting point of 261 °C.
Work on `Cc1nc(N2CCN(Cc3ccccc3C(F)(F)F)C2=O)sc1C(=O)NCc1ccccc1` yielded a melting point of 138 to 140 °C.
`Cc1nc2cccc(Cn3ccc4cc(Cl)ccc43)c2c(=O)[nH]1` showed a melting point of 251 to 252 °C.
For `CCCc1c(C#N)ccc(NC(=NC#N)Nc2cccc(Cl)c2Cl)c1O`, the melting point was 143 to 147 °C.
`O=C(Nc1ccc(Cl)cn1)c1nc(-c2ccccc2)c2ccccc2c1O` gave a melting point of 249 to 251 °C.
Compound `Cc1nc(C=O)cn1Cc1ccccc1` has a melting point of 57 to 60 °C.
For `O=C(O)CC1(O)CCc2c([nH]c3ccccc23)C1=O` (stereo not drawn), the melting point was 156 to 157 °C.
For `Cn1nc(N2c3cccc(F)c3CC2C(=O)N2CCCCCC2)ccc1=O` (stereo not drawn), the melting point was 211 to 213 °C.
For `COC(=O)CN(C)c1cccc(-c2ccc(Cl)cc2)n1`, the melting point was 54 °C.
In the case of `S=c1[nH]cnn1C1CCc2ccccc2C1` (stereo not drawn), the melting point is reported as 200 °C.
`CC(C)(C)c1cc(CCc2ccc(Cl)cc2NC(=O)NC2CCN(Cc3ccccc3)CC2)cc(C(C)(C)C)c1O` showed a melting point of 155 to 156 °C.
`COc1ccc2c(c1C)OC(C(=O)O)C2` (stereo not drawn) gave a melting point of 142 to 143 °C.
`Cc1ccc(C(=O)N(C)C2CCCCC2)cc1` showed a melting point of 70 to 71 °C.
For `CCCc1c(OCCCCCC(=O)c2c(C)c(C)c(OC)c(OC)c2C)ccc(C(=O)O)c1O`, the melting point was 108 to 112 °C.
`O=C(Oc1ccccc1)N1CCC2(CC1)SC(c1ccccc1F)c1ccccc12` (stereo not drawn) showed a melting point of 122 to 123 °C.
Compound `COC(=O)c1cscc1N=C=S` has a melting point of 93 to 95 °C.
`CCc1cccc(CC(=O)O)c1OCCCc1cn(-c2ccc(Cl)cn2)nc1C(CC)CC` showed a melting point of 114 to 115 °C.
Compound `CN1CCN(C(=O)OC(C)(C)C)CC1C(N)=O` (stereo not drawn) has a melting point of 137 to 138 °C.
With `CC(=O)c1ccc2c(=O)c(Br)c(C)oc2c1` the melting point was 124 °C.
In the case of `c1c2c(cc3c1CCC3)CCC2`, the melting point is reported as 35 to 36.2 °C.
Work on `Cn1nc(-c2c(F)cccc2Cl)nc1-c1ccc(OCc2ccc(C(F)(F)F)cc2F)c(Cl)c1` yielded a melting point of 109 to 111 °C.
For `CCN(CC)Cc1nn2cc(-c3ccccc3)nc2s1`, the melting point was 138 °C.
Work on `N#Cc1ccc2[nH]cc(C3CCC(=O)C3)c2c1` (stereo not drawn) yielded a melting point of 136 to 138 °C.
In the case of `N#Cc1ccc(C(=O)N2C[C@H](OCc3ccccc3)C[C@H]2C(=O)O)cc1`, the melting point is reported as 58 to 60 °C.
For `O=[N+]([O-])c1c(OC(F)(F)F)ccc2nc(Cl)sc12`, the melting point was 64 °C.
`CCCCCCC(C)NC1=NS(=O)(=O)c2sc(Cl)cc2N1` (stereo not drawn) gave a melting point of 179 to 181 °C.
`CCCCOc1ncc(C(C)O)cc1-c1nc2c(CC)n(C3CN(CC)C3)nc2c(=O)[nH]1` (stereo not drawn) gave a melting point of 117 to 119 °C.
Work on `Cc1ccc(C)n1-c1ccc(CC#N)cc1` yielded a melting point of 112 to 113 °C.
Work on `COc1ccc(-c2nc(C(=O)O)cn2-c2ccc(OC)cc2)cc1` yielded a melting point of 102 to 105 °C.
`COc1cccc(CC(=O)O)c1OCCCc1cn(-c2ccc(C(F)(F)F)cn2)nc1C(C)(C)C` showed a melting point of 94 to 95 °C.
In the case of `Cc1nn(-c2c(Cl)cc(C(F)(F)F)cc2Cl)nc1CBr`, the melting point is reported as 98 to 100 °C.
In the case of `O=C(O)c1cc(CO)ccc1O`, the melting point is reported as 108 to 110 °C.
For `O=C(O)C(CBr)N(C(=O)c1ccccc1)N1C(=O)CCC1=O` (stereo not drawn), the melting point was 174 to 177 °C.
With `CCCCc1nc(Cl)c(C=O)n1Cc1ccc2oc(-c3ccccc3C#N)c(OC)c2c1` the melting point was 118 to 120 °C.
Compound `Cc1ccc(C(C#N)C=Cc2ccc(O)c(O)c2)cc1` (stereo not drawn) has a melting point of 172 °C.
For `OCC1CCC(CBr)CC1` (stereo not drawn), the melting point was 146 to 149 °C.
With `ON=Cc1csc2ccccc12` the melting point was 87 to 89 °C.
`COc1cc2ncnc(N3CCC(=O)CC3)c2cc1OC` gave a melting point of 176 to 178 °C.
`COc1ccc(CNc2nnc(-n3ccnc3)c3ccc(Cl)cc23)cc1Cl` showed a melting point of 221 to 222 °C.
`COc1cc(Br)c2oc(-c3ccc(OC)c(F)c3)nc2c1` showed a melting point of 175 to 177 °C.
For `N#Cc1ccc(S(F)(F)(F)(F)F)cc1[N+](=O)[O-]`, the melting point was 57 to 59 °C.
In the case of `NS(=O)(=O)CCCSc1ccc2nc(Cl)cn2n1`, the melting point is reported as 117 to 118 °C.
Work on `Cc1cccc(C)c1NCCCCn1ccnc1` yielded a melting point of 146 to 147 °C.
Work on `CCOC(=O)Cc1cc(Br)c(C(=O)c2ccc(Cl)cc2)n1C` yielded a melting point of 118 to 120 °C.
Work on `CC1(C)Cn2c(nc3c(N)nc4ccccc4c32)CN1S(C)(=O)=O` yielded a melting point of 227 to 228 °C.
`N#Cc1ccc(CC(=O)Nc2cccc(C(=O)NCCC(=O)OCc3ccccc3)c2)cc1` gave a melting point of 98 to 99 °C.
For `COc1cc2[nH]c(SCc3nccc(OC)c3OC)nc2cc1OC(F)F`, the melting point was 137 to 138 °C.
Work on `CCc1cc(OCc2ccc(-c3ccccc3-c3nnn(C(c4ccccc4)(c4ccccc4)c4ccccc4)n3)cc2)c2c(n1)CCN(C)C2` yielded a melting point of 143 to 144 °C.
Compound `CCN(C(=O)C1CC1)c1cnn2ccccc12` has a melting point of 83 to 86 °C.
For `Cc1cc2cc(CN3CCC(C(N)=O)CC3)cnc2cc1NC(=O)c1ccc(-c2ccc(F)cc2)cc1`, the melting point was 265 °C.
For `CC(=O)c1cn(Cc2ccccc2F)c(=O)n(Cc2ccccc2F)c1=O`, the melting point was 149 to 150 °C.
In the case of `CC(=O)Oc1ccc(S(=O)(=O)ON=C2CCCc3ccccc32)cc1`, the melting point is reported as 151 to 152 °C.
With `Cc1ccc(-c2nc3ccccc3s2)nc1` the melting point was 170 °C.
For `CCOc1nc(C)nc(N2CCc3ccccc3CC2)c1[N+](=O)[O-]`, the melting point was 145 to 147 °C.
`CN1CCC(=O)C(C(c2ccc(Cl)cc2)c2ccc(Cl)cc2)C1` (stereo not drawn) gave a melting point of 146 to 147 °C.
For `Cc1cccc2c1ncn2Cc1oc2ccccc2c(=O)c1-c1ccccc1`, the melting point was 204 to 208 °C.
`Cc1ccc(-c2ccc3c(c2)C=C(C(=O)O)CS3)cc1` gave a melting point of 244 °C.
For `Cc1cc(C(=O)N2CCCCC2)ccc1[N+](=O)[O-]`, the melting point was 71.7 to 72.2 °C.
With `CC(C)=CCOc1c(-c2ccc(S(C)(=O)=O)cc2)cnn(-c2cccc(Cl)c2)c1=O` the melting point was 113 to 115 °C.
For `CC(=O)Nc1cccc(-n2ccnc2)c1`, the melting point was 181 to 183 °C.
For `CC(C)=CCC/C(C)=C/COCC(=O)c1cc(C(C)(C)C)c(O)c(C(C)(C)C)c1`, the melting point was 50 °C.
In the case of `CC(=Cc1ccc(O)cc1)C(=O)O`, the melting point is reported as 204 to 205 °C.
With `O=C(O)CCNC(=O)CCCCC1CCSS1` (stereo not drawn) the melting point was 74 to 76 °C.
`C=CCN1CCN(C(C#CSc2ccccc2)=Nc2ccc(OC)cc2)CC1` gave a melting point of 75 °C.
Work on `CC1CC(C)CN(c2nccc(Oc3ccc(NC(=O)c4cc(F)cc(N5CCOCC5)c4)c4ccccc34)n2)C1` (stereo not drawn) yielded a melting point of 102 to 104 °C.
`CCCc1ccc(S(=O)(=O)c2ccc(F)cc2)cc1S(=O)(=O)NCCc1ccncc1` gave a melting point of 160 to 162 °C.
For `Cc1cc(C(C)(C)O)ccc1-c1ccccc1`, the melting point was 60 to 64 °C.
For `CCOC(=O)C(C)Oc1ccc(-c2nc(-c3ccc(C)cc3C)nc(-c3ccc(C)cc3C)n2)c(O)c1` (stereo not drawn), the melting point was 120 to 122 °C.
For `CCOc1ccc(-c2cc(C(F)(F)F)n3ncc(-c4cccnc4)c3n2)cc1C(F)(F)F`, the melting point was 178 °C.
`Nc1cc2[nH]c(=O)ccc2cn1` showed a melting point greater than 275 °C.
Compound `Nc1nccn2c(C3CCC3)nc(-c3ccc4cccnc4c3)c12` has a melting point of 94 to 96 °C.
With `O=c1[nH]c2ccc(Cl)cc2c2nc(-c3cccnc3)nn12` the melting point was 189 to 193 °C.
`CCCc1nc2c(N)nc3cc(OCc4ccc(C(C)(C)C)cc4)ccc3c2n1CC(C)C` gave a melting point of 204 to 205 °C.
`COCc1cc(Oc2ccc3c(C(=O)Nc4ccc(C)c(C(F)(F)F)c4)cccc3c2)ncn1` showed a melting point of 188 °C.
For `COC(=O)C(CCCCCCCCCCCCC(C(=O)O)C1CC1)C1CC1` (stereo not drawn), the melting point was 59.4 to 60.5 °C.
Work on `CCCCC(CC)COC(=O)COc1cc(F)ccc1C(=O)NCc1cccc([N+](=O)[O-])c1` (stereo not drawn) yielded a melting point of 59 to 60 °C.
